Counter-ions that a name gives are not always drawn. Like-named read-outs stand apart in the source and are kept apart here.
Assays:
[1] = molecular target: T1, human synthetic MSK1 (14-438-K, Millipore) (Homo sapiens, UniProt O75582); assay: MSK1 enzymatic inhibition assay (Kinase-Glo luminescence); type: biochemical; conditions: for inhibition at 1 µM: read-out: MSK1 % Inhibition 1 µM; for inhibition at 10 µM: read-out: MSK1 % Inhibition 10 µM; for MSK1 inhibitory activity (in words): tested at 1 and 10 µM; for IC50: 8 concentrations 0.03-100 µM
T1 construct: purchased Millipore 14-438-K
Procedure: All results are summarized in Table 1, Table 2, Table 3, Table 4 and Table 5 and on Figure 4. […]
An orthogonal luminescence-based assay Kinase-Glo® (Promega, Madison, WI, USA) was used to validate the hits, quantifying the amount of the remaining ATP in the solution following the kinase reaction. Enzymatic reactions were performed up to 4h at room temperature in presence of 3 µM ATP. All compounds were tested in quadruplicates at 1 µM and 10 µM. […] Luminescence was measured with EnVision Plate Reader (Perkin Elmer).

[2] = compound at 1 µM, ± Standard Deviation (n = 4)
[3] = compound at 10 µM, ± Standard Deviation (n = 4)
[4] = ± Standard Deviation (n = 4), read-out: MSK1 IC50
[5] = MSK1 IC50, ± Standard Deviation (n = 4)

T1 sequence (O75582 whole entry): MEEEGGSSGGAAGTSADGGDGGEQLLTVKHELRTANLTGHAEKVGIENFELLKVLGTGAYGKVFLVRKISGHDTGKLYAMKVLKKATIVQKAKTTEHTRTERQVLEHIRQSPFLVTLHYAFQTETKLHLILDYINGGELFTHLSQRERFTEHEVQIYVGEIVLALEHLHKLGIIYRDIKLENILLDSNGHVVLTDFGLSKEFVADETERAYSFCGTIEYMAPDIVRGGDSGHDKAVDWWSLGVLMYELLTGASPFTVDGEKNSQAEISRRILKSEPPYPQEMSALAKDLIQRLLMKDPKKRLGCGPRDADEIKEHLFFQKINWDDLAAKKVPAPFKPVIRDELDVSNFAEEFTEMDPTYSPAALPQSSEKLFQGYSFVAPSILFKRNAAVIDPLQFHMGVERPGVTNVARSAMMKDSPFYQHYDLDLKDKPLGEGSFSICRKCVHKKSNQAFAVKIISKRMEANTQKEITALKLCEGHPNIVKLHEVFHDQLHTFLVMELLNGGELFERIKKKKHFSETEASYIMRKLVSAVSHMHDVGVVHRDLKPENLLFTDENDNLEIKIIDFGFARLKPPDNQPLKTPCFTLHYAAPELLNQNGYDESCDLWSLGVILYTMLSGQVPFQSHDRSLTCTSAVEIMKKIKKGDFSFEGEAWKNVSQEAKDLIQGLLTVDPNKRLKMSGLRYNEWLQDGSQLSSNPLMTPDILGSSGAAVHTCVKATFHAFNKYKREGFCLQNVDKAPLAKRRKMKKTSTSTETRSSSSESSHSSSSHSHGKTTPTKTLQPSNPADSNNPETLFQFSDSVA

inhibition at 1 µM [1, 2] [%]	inhibition at 10 µM [1, 3] [%]	MSK1 inhibitory activity (in words) [1]	Compound	further results
-2 ± 4	49 ± 13	–	Nc1nc2c(-c3ccccc3Cl)cccc2n1CCO [Compound 74b]	–
-4 ± 1	5 ± 1	inactive	N=C(N)Nc1cc(-c2ccccc2)ccn1 [Compound 13]	–
-3 ± 5	39 ± 7	–	Br.COc1ccccc1-c1cccc2[nH]c(N)nc12 [Compound 49g, 4-(2-Methoxyphenyl)-1H-benzo[d]imidazol-2-amine Hydrobromide]	melting point: 61 to 66 °C
-6 ± 4	3 ± 7	–	Br.COc1cccc(-c2cccc3c2CNC(N)=N3)c1 [Compound 37e, 5-(3-Methoxyphenyl)-3,4-dihydroquinazolin-2-amine Hydrobromide]	melting point: 198 to 199 °C
0	45 ± 5	–	N=C(N)Nc1cccc(-c2cccc(Cl)c2)n1 [Compound 1e]	IC50 [1, 4]: 9.7 ± 1 µM
–	–	–	N=C(N)Nc1cccc(N2CCCCC2)n1 (as salt: salt) [Compound 31, 2-guanidino-6-piperidinopyridine]	melting point: 196 to 197 °C
62 ± 8	95 ± 8	–	N=C(N)Nc1cccc(-c2ccccc2Cl)n1 [Compound 1k]	IC50 [1, 4]: 0.6 ± 0.1 µM
-28 ± 7	4 ± 14	inactivity	Nc1nc2c(-c3ccccc3Cl)cccc2s1 [Compound 67]	–
–	–	–	N=C(N)Nc1cccc(-c2ccccc2F)n1 (as salt: trifluoroacetate) [Compound 1j, 1-[6-(2-Fluorophenyl)pyridin-2-yl] guanidiniumtrifluoroacetate]	melting point: 199 to 200 °C
4 ± 8	48 ± 15	–	Cc1ccccc1-c1cccc(NC(=N)N)n1 [Compound 1l, 1-[6-(2-Methylphenyl)pyridin-2-yl] guanidiniumtrifluoroacetate]	IC50 [1, 4]: 3.5 ± 0.3 µM
–	–	–	N=C(N)Nc1cccc(-c2cc(Cl)ccc2Cl)n1 (as salt: trifluoroacetate) [Compound 1q, 1-[6-(2,5-Dichlorophenyl)pyridin-2-yl] guanidiniumtrifluoroacetate]	melting point: 151 to 152 °C
-7 ± 4	-5 ± 5	–	COc1ccc(-c2cccc3c2CNC(N)=N3)cc1 [Compound 37c, 5-(4-Methoxyphenyl)-3,4-dihydroquinazolin-2-amine Hydrobromide]	–
–	–	–	Cc1ccccc1-c1cccc(NC(=N)N)n1 (as salt: trifluoroacetate) [Compound 1l, 1-[6-(2-Methylphenyl)pyridin-2-yl] guanidiniumtrifluoroacetate]	melting point: 168 to 169 °C
-10 ± 2	-11 ± 1	inactive	N=C(N)Nc1ccc(-c2ccccc2)cn1 [Compound 12, 5-phenyl pyridinylguanidine]	–
-18 ± 5	0	inactivity	O=c1[nH]c2cccc(-c3ccccc3Cl)c2[nH]1 [Compound 64]	–
2 ± 2	31 ± 7	–	N=C(N)Nc1cccc(-c2ccc(Cl)cc2Cl)n1 [Compound 1p, 1-[6-(2,4-Dichlorophenyl)pyridin-2-yl] guanidiniumtrifluoroacetate]	IC50 [1, 4]: > 30 µM
-4 ± 2	37 ± 5	–	Nc1nc2c(-c3ccccc3Cl)cccc2n1CCCNC(=O)c1ccccc1 [Compound 74c]	–
–	70 ± 7	–	N=C(N)Nc1cccc(-c2cccnc2)n1 [Compound 1s, 1-[6-(Pyridin-3-yl)pyridin-2-yl] guanidinium trifluoroacetate]	IC50 [1, 4]: 5.8 ± 0.6 µM
1 ± 3	5 ± 3	–	Nc1nc2c(-c3ccccc3Cl)cccc2n1CCCCc1ccccc1 [Compound 74d]	–
-3 ± 6	49 ± 9	–	Br.Nc1nc2c(-c3ccc(Cl)cc3)cccc2[nH]1 [Compound 49b, 4-(4-Chlorophenyl)-1H-benzo[d]imidazol-2-amine Hydrobromide]	melting point: 254 to 256 °C
–	–	–	N=C(N)Nc1cccc(-c2ccncc2)n1 (as salt: trifluoroacetate) [Compound 1r, 1-[6-(Pyridin-4-yl)pyridin-2-yl] guanidiniumtrifluoroacetate]	melting point: 208 to 209 °C
-5 ± 3	-3 ± 4	inactive	COc1ccc(-c2cccc(NC(=N)N)n2)cc1 [Compound 1d]	–

inhibition at 1 µM [1, 2] [%]	inhibition at 10 µM [1, 3] [%]	MSK1 inhibitory activity (in words) [1]	Compound	further results
–	–	–	N=C(N)Nc1cccc(-c2cccnc2Cl)n1 [Compound 1t, 1-(2′-Chloro-[2,3′-bipyridin]-6-yl) guanidiniumtrifluoroacetate]	IC50 [1, 5]: 12.6 ± 4 µM; inhibition at 10 µM [1]: 69 ± 11%
0	2 ± 3	inactivity	CCCNC1=Nc2cccc(-c3ccccc3)c2CN1 [Compound 60a]	melting point: 70 to 72 °C
2 ± 4	6 ± 4	–	N=C(N)Nc1ccc(CCc2ccccc2)cn1 [Compound 25]	–
16 ± 3	66 ± 12	–	COc1ccccc1-c1cccc(NC(=N)N)n1 [Compound 1n]	IC50 [1, 4]: 2.3 ± 0.3 µM
-2 ± 1	1 ± 2	inactivity	c1ccc(NC2=Nc3cccc(-c4ccccc4)c3CN2)cc1 [Compound 60b]	melting point: 77 to 82 °C
-9 ± 2	0	–	Br.NC1=Nc2cccc(-c3ccc(Cl)cc3)c2CN1 [Compound 37b, 5-(4-Chlorophenyl)-3,4-dihydroquinazolin-2-amine Hydrobromide]	melting point: 196 to 197 °C
–	–	–	N=C(N)Nc1cccc(-c2ccc(Cl)cc2Cl)n1 (as salt: trifluoroacetate) [Compound 1p, 1-[6-(2,4-Dichlorophenyl)pyridin-2-yl] guanidiniumtrifluoroacetate]	melting point: 196 to 197 °C
-7 ± 5	4 ± 4	–	Nc1nc2cc(-c3ccccc3)ccc2[nH]1 [Compound 50]	–
–	–	–	N=C(N)Nc1cccc(Cc2ccccc2)n1 (as salt: trifluoroacetate) [Compound 17, 1-(6-Benzylpyridin-2-yl) guanidiniumtrifluoroacetate]	melting point: 161 to 162 °C
-6 ± 3	41 ± 6	–	Nc1nc2c(-c3ccccc3Cl)cccc2n1CCc1ccccc1 [Compound 74a]	–
2 ± 10	5 ± 3	inactive	NC(=S)Nc1cccc(-c2ccccc2)n1 [Compound 33, 1(6-phenylpyridin-2-yl)thiourea]	–
-4 ± 5	23 ± 1	inactive	N=C(N)Nc1cccc(-c2ccc(Cl)cc2)n1 [Compound 1b]	–
-7 ± 4	16 ± 4	inactive	COc1cccc(-c2cccc(NC(=N)N)n2)c1 [Compound 1f]	–
–	16 ± 4	totally inactive	N=C(N)Nc1cccc(N2CCCCC2)n1 [Compound 31, 2-guanidino-6-piperidinopyridine]	–
10 ± 5	62 ± 15	–	N=C(N)Nc1cccc(-c2cccc(C(F)(F)F)c2Cl)n1 [Compound 1i, 1-[6-(2-chloro-3-trifluoromethylphenyl)pyridin-2-yl] guanidinium trifluoroacetate]	IC50 [1, 4]: 8.6 ± 0.9 µM
1 ± 5	11 ± 5	inactive	N=C(N)Nc1ncccc1-c1ccccc1 [Compound 14]	–
7 ± 9	9 ± 6	–	NC1=Nc2ccc(-c3ccccc3)cc2CN1 [Compound 43]	–
–	18 ± 2	–	N=C(N)Nc1cccc(-c2ccncc2)n1 [Compound 1r, 1-[6-(Pyridin-4-yl)pyridin-2-yl] guanidiniumtrifluoroacetate]	–
20 ± 3	75 ± 8	–	Nc1nc2c(-c3cccc(Cl)c3Cl)cccc2[nH]1 [Compound 49e, 4-(2,3-Dichlorophenyl)-1H-benzo[d]imidazol-2-amine Hydrobromide]	IC50 [1, 4]: 3.2 ± 0.2 µM
-6 ± 2	1 ± 2	–	Nc1nc2cccc(-c3ccccc3Cl)c2n1CCc1ccccc1 [Compound 75]	–
-4 ± 1	-8 ± 1	inactive	N=C(N)Nc1cccc(CCc2ccccc2)n1 [Compound 24]	–

Compound	inhibition at 1 µM [1, 2] [%]	inhibition at 10 µM [1, 3] [%]	MSK1 inhibitory activity (in words) [1]	further results
6-Phenyl-3,4-dihydrobenzodiazepin-2-amine Hydrochloride [Compound 57]	–	–	inactive	MSK1 % Inhibition 1 µM [1, 2]: 8±6%; MSK1 % Inhibition 10 µM [1, 3]: 12±6%
COc1ncccc1-c1cccc(NC(=N)N)n1 [Compound 1u, 1-(2′-Methoxy-[2,3′-bipyridin]-6-yl) guanidiniumtrifluoroacetate]	–	–	abolished the inhibitory activity	IC50 [1, 5]: > 30 µM; inhibition at 10 µM [1]: 42 ± 7%
N=C(N)Nc1cccc(Cc2ccccc2)n1 [Compound 17, 1-(6-Benzylpyridin-2-yl) guanidiniumtrifluoroacetate]	–	–	inactive	inhibition at 1 µM [1]: -2 ± 1%; inhibition at 10 µM [1]: -2 ± 3%
